Data taken from patent US9828413B2, “Vancomycin derivative, and preparation method and application thereof” (ACESYS PHARMA INC., priority 2013, dated 2017).
Converted amounts (≈) assume the structure as drawn.

Experiments:
[1] = tested on: Staphylococcus aureus Mu50; test: In vitro activity assay, minimum inhibitory concentration (MIC), cup-plate method; type: cell-based; conditions: strain Mu50, trypticase soy broth, read-out: MIC values, Staphylococcus aureus Mu50
Experimental: (§1) In vitro activity assay was performed according to Microbiological Identification of Antibiotics, Appendix XIA, Volume II, Chinese Pharmacopoeia 2010. Vancomycin-sensitive Staphylococcus aureus strains (Newman and Mu 50) were selected as the test strains, and trypticase soy broth was selected as the culture medium.

[2] = tested on: Staphylococcus aureus Newman; test: as above; type: cell-based; conditions: strain Newman, trypticase soy broth, read-out: MIC values, Staphylococcus aureus Newman
Experimental: as §1

physchem = conditions: 25 °C, water, thermodynamic from solid

Structure (SMILES)	MIC [1] [µg/mL]	MIC [2] [µg/mL]	solubility at 30 min (physchem) [mg/mL]
CN[C@H](CC(C)C)C(=O)NC1C(=O)N[C@@H](CC(N)=O)C(=O)N[C@H]2C(=O)NC3C(=O)N[C@H](C(=O)N[C@@H](C(=O)O)c4cc(O)cc(O)c4-c4cc3ccc4O)[C@H](OC3CC(C)(N)C(O)C(C)O3)c3ccc(c(Cl)c3)Oc3cc2cc(c3OC2OC(CO)C(O)C(O)C2OC2CC(C)(NCC(OCc3ccccc3)C(=O)O)C(O)C(C)O2)Oc2ccc(cc2Cl)[C@H]1O (stereo partly drawn) [Compound V61]	8 (≈ 4.52 µM)	4 (≈ 2.26 µM)	20 (≈ 11300 µM)
CC(C)C[C@@H](N)C(=O)N[C@@H]1C(=O)NC(CC(N)=O)C(=O)NC2C(=O)NC3C(=O)N[C@H](C(=O)NC(C(=O)O)c4cc(O)cc(O)c4-c4cc3ccc4O)[C@H](OC3CC(C)(N)C(O)C(C)O3)c3ccc(c(Cl)c3)Oc3cc2cc(c3OC2OC(CO)C(O)C(O)C2OC2CC(C)(NCC(OCc3ccc(-c4ccc(Cl)cc4)cc3)C(=O)O)C(O)C(C)O2)Oc2ccc(cc2Cl)C1O (stereo partly drawn) [Compound V66]	2 (≈ 1.07 µM)	< 0.125	5 to 20 (≈ 2680 to 10700 µM)
CN[C@H](CC(C)C)C(=O)NC1C(=O)N[C@@H](CC(N)=O)C(=O)N[C@H]2C(=O)NC3C(=O)N[C@H](C(=O)N[C@@H](C(=O)O)c4cc(O)cc(O)c4-c4cc3ccc4O)[C@H](O)c3ccc(c(Cl)c3)Oc3cc2cc(c3OC2OC(CO)C(O)C(O)C2OC2CC(C)(NCC(OCc3ccc(-c4ccccc4)cc3)C(=O)O)C(O)C(C)O2)Oc2ccc(cc2Cl)[C@H]1O (stereo partly drawn) [Compound V24]	8 (≈ 4.7 µM)	4 (≈ 2.35 µM)	> 10
CN[C@H](CC(C)C)C(=O)N[C@@H]1C(=O)NC(CC(N)=O)C(=O)NC2C(=O)NC3C(=O)N[C@H](C(=O)NC(C(=O)O)c4cc(O)cc(O)c4-c4cc3ccc4O)[C@H](O)c3ccc(c(Cl)c3)Oc3cc2cc(c3OC2OC(CO)C(O)C(O)C2OC2CC(C)(NCC(OCc3ccc(-c4ccccc4)cc3)C(=O)OC)C(O)C(C)O2)Oc2ccc(cc2Cl)C1O (stereo partly drawn) [Compound V25]	8 (≈ 4.66 µM)	4 (≈ 2.33 µM)	< 5
CN[C@H](CC(C)C)C(=O)N[C@@H]1C(=O)NC(CC(N)=O)C(=O)NC2C(=O)NC3C(=O)N[C@H](C(=O)NC(C(=O)O)c4cc(O)cc(O)c4-c4cc3ccc4O)[C@H](OC3CC(C)(N)C(O)C(C)O3)c3ccc(c(Cl)c3)Oc3cc2cc(c3OC2OC(CO)C(O)C(O)C2OC2CC(C)(NCC(OCc3ccc(-c4ccccc4Cl)cc3)C(=O)O)C(O)C(C)O2)Oc2ccc(cc2Cl)C1O (stereo partly drawn) [Compound V64]	2 (≈ 1.06 µM)	< 0.125	5 to 20 (≈ 2660 to 10600 µM)
CCCOC(CNC1(C)CC(OC2C(Oc3c4cc5cc3Oc3ccc(cc3Cl)[C@@H](O)[C@@H]3NC(=O)C(NC(=O)[C@@H]5NC(=O)[C@H](CC(N)=O)NC(=O)C(NC(=O)[C@@H](CC(C)C)NC)[C@H](O)c5ccc(c(Cl)c5)O4)c4ccc(O)c(c4)-c4c(O)cc(O)cc4[C@H](C(=O)O)NC3=O)OC(CO)C(O)C2O)OC(C)C1O)C(=O)O (stereo partly drawn) [Compound V30]	16 (≈ 10.1 µM)	4 (≈ 2.53 µM)	4 (≈ 2530 µM)
CN[C@H](CC(C)C)C(=O)NC1C(=O)N[C@@H](CC(N)=O)C(=O)N[C@H]2C(=O)NC3C(=O)N[C@H](C(=O)N[C@@H](C(=O)O)c4cc(O)cc(O)c4-c4cc3ccc4O)[C@H](O)c3ccc(c(Cl)c3)Oc3cc2cc(c3OC2OC(CO)C(O)C(O)C2OC2CC(C)(NCC(OCc3ccc(-c4ccc(Cl)cc4)cc3)C(=O)O)C(O)C(C)O2)Oc2ccc(cc2Cl)[C@H]1O (stereo partly drawn) [Compound V15]	2 (≈ 1.15 µM)	< 0.125	≥ 60
CC(C)C[C@@H](N)C(=O)N[C@@H]1C(=O)NC(CC(N)=O)C(=O)NC2C(=O)NC3C(=O)N[C@H](C(=O)NC(C(=O)O)c4cc(O)cc(O)c4-c4cc3ccc4O)[C@H](O)c3ccc(c(Cl)c3)Oc3cc2cc(c3OC2OC(CO)C(O)C(O)C2OC2CC(C)(NCC(OCc3ccccc3)C(=O)O)C(O)C(C)O2)Oc2ccc(cc2Cl)C1O (stereo partly drawn) [Compound V51]	32 (≈ 19.8 µM)	8 (≈ 4.96 µM)	20 (≈ 12400 µM)
CCCCOC(CNC1(C)CC(OC2C(Oc3c4cc5cc3Oc3ccc(cc3Cl)[C@@H](O)[C@@H]3NC(=O)C(NC(=O)C5NC(=O)C(CC(N)=O)NC(=O)[C@@H](NC(=O)[C@@H](CC(C)C)NC)C(O)c5ccc(c(Cl)c5)O4)c4ccc(O)c(c4)-c4c(O)cc(O)cc4C(C(=O)O)NC3=O)OC(CO)C(O)C2O)OC(C)C1O)C(=O)OC (stereo partly drawn) [Compound V16]	64 (≈ 39.8 µM)	16 (≈ 9.95 µM)	≥ 60
CN[C@H](CC(C)C)C(=O)NC1C(=O)N[C@@H](CC(N)=O)C(=O)N[C@H]2C(=O)NC3C(=O)N[C@H](C(=O)N[C@@H](C(=O)O)c4cc(O)cc(O)c4-c4cc3ccc4O)[C@H](O)c3ccc(c(Cl)c3)Oc3cc2cc(c3OC2OC(CO)C(O)C(O)C2OC2CC(C)(NCC(OC)C(=O)O)C(O)C(C)O2)Oc2ccc(cc2Cl)[C@H]1O (stereo partly drawn) [Compound V27]	64 (≈ 41.3 µM)	16 (≈ 10.3 µM)	20 (≈ 12900 µM)
CN[C@H](CC(C)C)C(=O)N[C@@H]1C(=O)NC(CC(N)=O)C(=O)NC2C(=O)NC3C(=O)N[C@H](C(=O)NC(C(=O)O)c4cc(O)cc(O)c4-c4cc3ccc4O)[C@H](O)c3ccc(c(Cl)c3)Oc3cc2cc(c3OC2OC(CO)C(O)C(O)C2OC2CC(C)(NCC(OCc3ccc(Cl)cc3)C(=O)OC)C(O)C(C)O2)Oc2ccc(cc2Cl)C1O (stereo partly drawn) [Compound V20]	2 (≈ 1.19 µM)	< 0.125	< 5
CN[C@H](CC(C)C)C(=O)N[C@@H]1C(=O)NC(CC(N)=O)C(=O)NC2C(=O)NC3C(=O)N[C@H](C(=O)NC(C(=O)O)c4cc(O)cc(O)c4-c4cc3ccc4O)[C@H](O)c3ccc(c(Cl)c3)Oc3cc2cc(c3OC2OC(CO)C(O)C(O)C2OC2CC(C)(NCC(OCc3ccc(Cl)cc3)C(=O)O)C(O)C(C)O2)Oc2ccc(cc2Cl)C1O (stereo partly drawn) [Compound V21]	2 (≈ 1.2 µM)	< 0.125	> 8
CCCCCCOC(CNC1(C)CC(OC2C(Oc3c4cc5cc3Oc3ccc(cc3Cl)[C@@H](O)[C@@H]3NC(=O)C(NC(=O)[C@@H]5NC(=O)[C@H](CC(N)=O)NC(=O)C(NC(=O)[C@@H](CC(C)C)NC)[C@H](O)c5ccc(c(Cl)c5)O4)c4ccc(O)c(c4)-c4c(O)cc(O)cc4[C@H](C(=O)O)NC3=O)OC(CO)C(O)C2O)OC(C)C1O)C(=O)O (stereo partly drawn) [Compound V32]	8 (≈ 4.93 µM)	2 (≈ 1.23 µM)	50 to 60 (≈ 30800 to 37000 µM)
CCCCCCCCCCOC(CNC1(C)CC(OC2C(Oc3c4cc5cc3Oc3ccc(cc3Cl)[C@@H](O)[C@@H]3NC(=O)C(NC(=O)C5NC(=O)C(CC(N)=O)NC(=O)[C@@H](NC(=O)[C@H](N)CC(C)C)C(O)c5ccc(c(Cl)c5)O4)c4ccc(O)c(c4)-c4c(O)cc(O)cc4C(C(=O)O)NC3=O)OC(CO)C(O)C2O)OC(C)C1O)C(=O)O (stereo partly drawn) [Compound V68]	8 (≈ 4.81 µM)	4 (≈ 2.4 µM)	5 to 10 (≈ 3010 to 6010 µM)
CCCOC(CNC1(C)CC(OC2C(Oc3c4cc5cc3Oc3ccc(cc3Cl)[C@@H](O)[C@@H]3NC(=O)C(NC(=O)C5NC(=O)C(CC(N)=O)NC(=O)[C@@H](NC(=O)[C@H](N)CC(C)C)C(O)c5ccc(c(Cl)c5)O4)c4ccc(O)c(c4)-c4c(O)cc(O)cc4C(C(=O)O)NC3=O)OC(CO)C(O)C2O)OC(C)C1O)C(=O)O (stereo partly drawn) [Compound V57]	16 (≈ 10.2 µM)	4 (≈ 2.56 µM)	> 60
CCCCCCOC(CNC1(C)CC(OC2C(Oc3c4cc5cc3Oc3ccc(cc3Cl)[C@@H](O)[C@@H]3NC(=O)C(NC(=O)[C@@H]5NC(=O)[C@H](CC(N)=O)NC(=O)C(NC(=O)[C@H](N)CC(C)C)[C@H](O)c5ccc(c(Cl)c5)O4)c4ccc(O)c(c4)-c4c(O)cc(O)cc4[C@H](C(=O)O)NC3=O)OC(CO)C(O)C2O)OC(C)C1O)C(=O)O (stereo partly drawn) [Compound V60]	8 (≈ 4.98 µM)	2 (≈ 1.24 µM)	> 20
CCCCOC(CNC1(C)CC(OC2C(Oc3c4cc5cc3Oc3ccc(cc3Cl)[C@@H](O)[C@@H]3NC(=O)C(NC(=O)[C@@H]5NC(=O)[C@H](CC(N)=O)NC(=O)C(NC(=O)[C@@H](CC(C)C)NC)[C@H](O)c5ccc(c(Cl)c5)O4)c4ccc(O)c(c4)-c4c(O)cc(O)cc4[C@H](C(=O)O)NC3=O)OC(CO)C(O)C2O)OC(C)C1O)C(=O)O (stereo partly drawn) [Compound V19]	> 128	64 (≈ 40.2 µM)	50 to 60 (≈ 31400 to 37700 µM)
CN[C@H](CC(C)C)C(=O)NC1C(=O)N[C@@H](CC(N)=O)C(=O)N[C@H]2C(=O)NC3C(=O)N[C@H](C(=O)N[C@@H](C(=O)O)c4cc(O)cc(O)c4-c4cc3ccc4O)[C@H](O)c3ccc(c(Cl)c3)Oc3cc2cc(c3OC2OC(CO)C(O)C(O)C2OC2CC(C)(NCC(OCc3ccccc3)C(=O)O)C(O)C(C)O2)Oc2ccc(cc2Cl)[C@H]1O (stereo partly drawn) [Compound V11]	32 (≈ 19.7 µM)	8 (≈ 4.92 µM)	50 to 60 (≈ 30700 to 36900 µM)
CN[C@H](CC(C)C)C(=O)NC1C(=O)N[C@@H](CC(N)=O)C(=O)N[C@H]2C(=O)NC3C(=O)N[C@H](C(=O)N[C@@H](C(=O)O)c4cc(O)cc(O)c4-c4cc3ccc4O)[C@H](O)c3ccc(c(Cl)c3)Oc3cc2cc(c3OC2OC(CO)C(O)C(O)C2OC2CC(C)(NCC(OCc3ccccc3)C(=O)OC)C(O)C(C)O2)Oc2ccc(cc2Cl)[C@H]1O (stereo partly drawn) [Compound V9]	32 (≈ 19.5 µM)	8 (≈ 4.87 µM)	< 0.1
CCOC(CNC1(C)CC(OC2C(Oc3c4cc5cc3Oc3ccc(cc3Cl)[C@@H](O)[C@@H]3NC(=O)C(NC(=O)C5NC(=O)C(CC(N)=O)NC(=O)[C@@H](NC(=O)[C@@H](CC(C)C)NC)C(O)c5ccc(c(Cl)c5)O4)c4ccc(O)c(c4)-c4c(O)cc(O)cc4C(C(=O)O)NC3=O)OC(CO)C(O)C2O)OC(C)C1O)C(=O)OC (stereo partly drawn) [Compound V33]	64 (≈ 40.5 µM)	16 (≈ 10.1 µM)	5 (≈ 3170 µM)
CN[C@H](CC(C)C)C(=O)NC1C(=O)N[C@@H](CC(N)=O)C(=O)N[C@H]2C(=O)NC3C(=O)N[C@H](C(=O)N[C@@H](C(=O)O)c4cc(O)cc(O)c4-c4cc3ccc4O)[C@H](OC3CC(C)(N)C(O)C(C)O3)c3ccc(c(Cl)c3)Oc3cc2cc(c3OC2OC(CO)C(O)C(O)C2OC2CC(C)(NCC(OCc3cccc(-c4ccc(Cl)cc4)c3)C(=O)O)C(O)C(C)O2)Oc2ccc(cc2Cl)[C@H]1O (stereo partly drawn) [Compound V65]	2 (≈ 1.06 µM)	< 0.125	5 to 20 (≈ 2660 to 10600 µM)
